The values that follow come from patent US20160318987A1 (MEDIMMUNE LIMITED, priority 2013, published 2016).

Where a SMILES comes first, the peptide text is derived from it. [ ]: non-standard residue; d: D form. αMeF = C[C@](N)(Cc1ccccc1)C(=O)O; Aib = CC(C)(N)C(=O)O

One test addresses T1, hGLP-1R (Homo sapiens, UniProt P43220).
T1 construct: expressed in transfected cells
Put plainly: cAMP functional assay, cells expressing human GLP-1 receptor (primary assay). It is filed as cell-based. The conditions noted are these: n = 2. Here is the method:
(§1) The biological activities/receptor potencies of the synthetic GLP-1 peptides described herein are suitably tested for biological activity, e.g., stimulation of one or more cellular receptor responses. Stable cell lines expressing human, mouse, rat, or dog GLP-1 receptor (GLP-1R), glucagon receptor (GCGR) or glucose-dependent insulinotropic peptide (gastric inhibitory polypeptide) receptor (GIPR) are generated in HEK293 cells or CHO cells by standard methods.
(§2) cAMP assays were performed using “assay buffer”: Assay Buffer: 0.1% BSA (Sigma #A3059) in HBSS (Sigma #H8264) with 25 mM HEPES, pH 7.4 and containing 0.5 mM IBMX (Sigma #17018).
(§3) Low protein binding 384-well plates (Greiner #781280) are used to perform eleven 1 in 5 serial dilutions of test samples which are made in assay buffer. All sample dilutions are made in duplicate.
(§4) A frozen cryo-vial of cells expressing the receptor of interest is thawed rapidly in a water-bath, transferred to pre-warmed assay buffer and spun at 240× g for 5 minutes. Cells are re-suspended in assay buffer at a batch-dependent optimized concentration (e.g. hGCGR cells at 2×10^5 cells/ml, hGLP-1R and hGIPR cells at 1×10^5 cells /ml).
(§5) From the dilution plate, a 5 μL replica is stamped onto a black shallow-well u-bottom 384-well plate (Corning #3676). To this, 5 μL cell suspension is added and the plates incubated at room temperature for 30 minutes.
(§6) cAMP levels are measured using a commercially available cAMP dynamic 2 HTRF kit (Cisbio, Cat #62AM4PEJ), following the two step protocol as per manufacturer's recommendations. In brief; anti-cAMP cryptate (donor fluorophore) and cAMP-d2 (acceptor fluorophore) are made up separately by diluting each 1/20 in conjugate & lysis buffer provided in the kit. 5 μL anti-cAMP cryptate is added to all wells of the assay plate, and 5 μL cAMP-d2 is added to all wells except non-specific binding (NSB) wells, to which conjugate and lysis buffer are added. Plates are incubated at room temperature for one hour and then read on an Envision (Perkin Elmer) using excitation wavelength of 320 nm and emission wavelengths of 620 nm & 665 nm. EC50 values of the synthetic peptides determined in cAMP assays are then determined.

A further test has as its target T2, hGIP-R (Homo sapiens, UniProt P48546).
T2 construct: expressed in transfected cells
T2 sequence (P48546 22-466): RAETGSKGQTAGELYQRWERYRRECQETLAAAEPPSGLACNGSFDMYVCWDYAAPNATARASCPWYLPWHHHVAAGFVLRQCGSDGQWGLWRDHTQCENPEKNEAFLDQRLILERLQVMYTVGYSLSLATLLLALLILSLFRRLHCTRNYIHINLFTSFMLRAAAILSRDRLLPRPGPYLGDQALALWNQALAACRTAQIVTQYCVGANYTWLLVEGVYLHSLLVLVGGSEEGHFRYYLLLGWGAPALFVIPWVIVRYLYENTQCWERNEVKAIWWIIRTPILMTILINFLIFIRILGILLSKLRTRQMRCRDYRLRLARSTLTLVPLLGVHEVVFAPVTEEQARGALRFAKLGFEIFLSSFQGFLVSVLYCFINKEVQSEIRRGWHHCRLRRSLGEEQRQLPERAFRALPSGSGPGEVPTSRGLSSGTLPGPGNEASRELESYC
The test is described as follows: cAMP functional assay, cells expressing human GIP receptor (primary assay). It is filed as cell-based. The conditions noted are these: n = 2. Here is the method: as §1, §2, §3, §4, §5, §6

T1 sequence (P43220 24-463): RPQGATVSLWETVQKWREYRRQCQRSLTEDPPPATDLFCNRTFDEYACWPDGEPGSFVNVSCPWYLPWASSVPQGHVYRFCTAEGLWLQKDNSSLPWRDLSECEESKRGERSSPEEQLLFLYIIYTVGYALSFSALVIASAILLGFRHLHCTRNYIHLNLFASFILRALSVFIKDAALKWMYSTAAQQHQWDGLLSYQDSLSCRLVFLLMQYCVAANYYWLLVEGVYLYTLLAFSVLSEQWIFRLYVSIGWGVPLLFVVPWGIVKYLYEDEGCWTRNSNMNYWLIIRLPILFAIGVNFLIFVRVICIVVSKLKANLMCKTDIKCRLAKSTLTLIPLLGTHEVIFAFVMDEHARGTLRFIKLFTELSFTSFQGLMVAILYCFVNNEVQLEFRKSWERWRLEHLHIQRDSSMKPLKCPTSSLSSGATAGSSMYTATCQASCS

With `CC[C@H](C)[C@H](NC(=O)[C@](C)(Cc1ccccc1)NC(=O)[C@H](CCC(=O)O)NC(=O)[C@H](CCCCN)NC(=O)[C@H](C)NC(=O)[C@H](C)NC(=O)[C@H](CCC(N)=O)NC(=O)CNC(=O)[C@H](CCC(=O)O)NC(=O)[C@H](CC(C)C)NC(=O)[C@H](Cc1ccc(O)cc1)NC(=O)[C@H](CO)NC(=O)[C@H](CO)NC(=O)[C@@H](NC(=O)[C@H](CC(=O)O)NC(=O)[C@H](CO)NC(=O)[C@@H](NC(=O)[C@](C)(Cc1ccccc1)NC(=O)[C@H](CO)NC(=O)CNC(=O)[C@H](CCC(=O)O)NC(=O)C(C)(C)NC(=O)[C@@H](N)Cc1c[nH]cn1)[C@@H](C)O)C(C)C)C(=O)N[C@@H](C)C(=O)N[C@@](C)(Cc1ccccc1)C(=O)N[C@@H](CC(C)C)C(=O)N[C@H](C(=O)N[C@@H](CCCCN)C(=O)NCC(=O)N[C@@H](CCCNC(=N)N)C(N)=O)C(C)C` [SEQ ID NO: 36, H-(Aib)^2-EG-(S)^5-(α-MeF)^6-TSDV^10 SSYLE^15 GQAAK^20 E-(α-MeF)^22-IA-(α-MeF)^25 LVKGR^30] (H-H[Aib]EGS[αMeF]TSDVSSYLEGQAAKE[αMeF]IA[αMeF]LVKGR-NH2), the EC50 at hGLP-1R stood at 0.0267 nM; at hGIP-R it was 102 nM.
For `CC[C@H](C)[C@H](NC(=O)[C@](C)(Cc1ccccc1)NC(=O)[C@H](CCC(=O)O)NC(=O)[C@H](CCCCN)NC(=O)[C@H](C)NC(=O)[C@H](C)NC(=O)[C@H](CCC(N)=O)NC(=O)CNC(=O)[C@H](CCC(=O)O)NC(=O)[C@H](CC(C)C)NC(=O)[C@](C)(Cc1ccccc1)NC(=O)[C@H](CO)NC(=O)[C@H](CO)NC(=O)[C@@H](NC(=O)[C@H](CC(=O)O)NC(=O)[C@H](CO)NC(=O)[C@@H](NC(=O)[C@H](Cc1ccccc1)NC(=O)[C@H](CO)NC(=O)CNC(=O)[C@H](CCC(=O)O)NC(=O)C(C)(C)NC(=O)[C@@H](N)Cc1c[nH]cn1)[C@@H](C)O)C(C)C)C(=O)N[C@@H](C)C(=O)N[C@@](C)(Cc1ccccc1)C(=O)N[C@@H](CC(C)C)C(=O)N[C@H](C(=O)N[C@@H](CCCCN)C(=O)NCC(=O)N[C@@H](CCCNC(=N)N)C(N)=O)C(C)C` [SEQ ID NO: 37, H-(Aib)^2-EG-(S)^5-FTSDV^10 SS-(α-MeF)^13-LE^15 GQAAK^20 E-(α-MeF)^22-IA-(α-MeF)^25 LVKGR^30] (H-H[Aib]EGSFTSDVSS[αMeF]LEGQAAKE[αMeF]IA[αMeF]LVKGR-NH2), in that order: 0.191 nM and 102 nM.
For `CC[C@H](C)[C@H](NC(=O)[C@](C)(Cc1ccccc1)NC(=O)[C@H](CCC(=O)O)NC(=O)[C@H](CCCCN)NC(=O)[C@H](C)NC(=O)[C@H](C)NC(=O)[C@H](CCC(N)=O)NC(=O)CNC(=O)[C@H](CCC(=O)O)NC(=O)[C@H](CC(C)C)NC(=O)[C@](C)(Cc1ccccc1)NC(=O)[C@H](CO)NC(=O)[C@H](CO)NC(=O)[C@@H](NC(=O)[C@H](CC(=O)O)NC(=O)[C@H](CO)NC(=O)[C@@H](NC(=O)[C@](C)(Cc1ccccc1)NC(=O)[C@H](CO)NC(=O)CNC(=O)[C@H](CCC(=O)O)NC(=O)C(C)(C)NC(=O)[C@@H](N)Cc1c[nH]cn1)[C@@H](C)O)C(C)C)C(=O)N[C@@H](C)C(=O)N[C@@](C)(Cc1ccccc1)C(=O)N[C@@H](CC(C)C)C(=O)N[C@H](C(=O)N[C@@H](CCCCN)C(=O)NCC(=O)NCC(N)=O)C(C)C` [SEQ ID NO: 39, H-(Aib)^2-EG-(S)^5-(α-MeF)^6-TSDV^10 SS-(α-MeF)^13-LE^15 GQAAK^20 E-(α-MeF)^22-IA-(α-MeF)^25 LVKG-(G)^30] (H-H[Aib]EGS[αMeF]TSDVSS[αMeF]LEGQAAKE[αMeF]IA[αMeF]LVKGG-NH2) the same measures were 0.0322 nM and 102 nM.
For `CC[C@H](C)[C@H](NC(=O)[C@](C)(Cc1ccccc1)NC(=O)[C@H](CCC(=O)O)NC(=O)[C@H](CCCCN)NC(=O)[C@H](C)NC(=O)[C@H](C)NC(=O)[C@H](CCC(N)=O)NC(=O)CNC(=O)[C@H](CCC(=O)O)NC(=O)[C@H](CC(C)C)NC(=O)[C@](C)(Cc1ccccc1)NC(=O)[C@H](CO)NC(=O)[C@H](CO)NC(=O)[C@@H](NC(=O)[C@H](CC(=O)O)NC(=O)[C@H](CO)NC(=O)[C@@H](NC(=O)[C@](C)(Cc1ccccc1)NC(=O)[C@H](CO)NC(=O)CNC(=O)[C@H](CCC(=O)O)NC(=O)C(C)(C)NC(=O)[C@@H](N)Cc1c[nH]cn1)[C@@H](C)O)C(C)C)C(=O)N[C@@H](C)C(=O)N[C@@](C)(Cc1ccccc1)C(=O)N[C@@H](CC(C)C)C(=O)NC(C)(C)C(=O)N[C@@H](CCCCN)C(=O)NCC(=O)N[C@@H](CCCNC(=N)N)C(N)=O` [SEQ ID NO: 40, H-(Aib)^2-EG-(S)^5-(α-MeF)^6-TSDV^10 SS-(α-MeF)^13-LE^15 GQAAK^20 E-(α-MeF)^22-IA-(α-MeF)^25 L-(Aib)27-KGR^30] (H-H[Aib]EGS[αMeF]TSDVSS[αMeF]LEGQAAKE[αMeF]IA[αMeF]L[Aib]KGR-NH2) the same measures were 0.254 nM and 102 nM.
For `CC[C@H](C)[C@H](NC(=O)[C@](C)(Cc1ccccc1)NC(=O)[C@H](CCC(=O)O)NC(=O)[C@H](CCCCN)NC(=O)[C@H](C)NC(=O)[C@H](C)NC(=O)[C@H](CCC(N)=O)NC(=O)CNC(=O)[C@H](CCC(=O)O)NC(=O)[C@H](CC(C)C)NC(=O)[C@](C)(Cc1ccccc1)NC(=O)[C@H](CO)NC(=O)[C@H](CO)NC(=O)[C@@H](NC(=O)[C@H](CC(=O)O)NC(=O)[C@H](CO)NC(=O)[C@@H](NC(=O)[C@](C)(Cc1ccccc1)NC(=O)[C@H](CO)NC(=O)CNC(=O)[C@H](CCC(=O)O)NC(=O)C(C)(C)NC(=O)[C@@H](N)Cc1c[nH]cn1)[C@@H](C)O)C(C)C)C(=O)N[C@@H](C)C(=O)N[C@@](C)(Cc1ccccc1)C(=O)N[C@@H](CC(C)C)C(=O)N[C@H](C(=O)N[C@@H](CCCCN)C(=O)NC(C)(C)C(=O)N[C@@H](CCCNC(=N)N)C(N)=O)C(C)C` [SEQ ID NO: 42, H-(Aib)^2-EG-(S)^5-(α-MeF)^6-TSDV^10 SS-(α-MeF)^13-LE^15 GQAAK^20 E-(α-MeF)^22-IA-(α-MeF)^25 LVK-(Aib)^29-R^30] (H-H[Aib]EGS[αMeF]TSDVSS[αMeF]LEGQAAKE[αMeF]IA[αMeF]LVK[Aib]R-NH2), the EC50 at hGLP-1R was 0.0234 nM; on hGIP-R it was 102 nM.
For `CC[C@H](C)[C@H](NC(=O)[C@](C)(Cc1ccccc1)NC(=O)[C@H](CCC(=O)O)NC(=O)[C@H](CCCCN)NC(=O)[C@H](C)NC(=O)[C@H](C)NC(=O)[C@H](CCC(N)=O)NC(=O)CNC(=O)[C@H](CCC(=O)O)NC(=O)[C@H](CC(C)C)NC(=O)[C@](C)(Cc1ccccc1)NC(=O)[C@H](CO)NC(=O)[C@H](CO)NC(=O)[C@@H](NC(=O)[C@H](CC(=O)O)NC(=O)[C@H](CO)NC(=O)[C@@H](NC(=O)[C@](C)(Cc1ccccc1)NC(=O)[C@H](CO)NC(=O)CNC(=O)[C@H](CCC(=O)O)NC(=O)C(C)(C)NC(=O)[C@@H](N)Cc1c[nH]cn1)[C@@H](C)O)C(C)C)C(=O)N[C@@H](C)C(=O)N[C@@](C)(Cc1ccccc1)C(=O)N[C@@H](CC(C)C)C(=O)NC(C)(C)C(=O)N[C@@H](CCCCN)C(=O)NC(C)(C)C(=O)N[C@@H](CCCNC(=N)N)C(N)=O` [SEQ ID NO: 43, H-(Aib)^2-EG-(S)^5-(α-MeF)^6-TSDV^10 SS-(α-MeF)^13-LE^15 GQAAK^20 E-(α-MeF)^22-IA-(α-MeF)^25 L-(Aib)^27-K-(Aib)^29-R^30] (H-H[Aib]EGS[αMeF]TSDVSS[αMeF]LEGQAAKE[αMeF]IA[αMeF]L[Aib]K[Aib]R-NH2), in that order: 0.0707 nM and 102 nM.
